Test results reported in publication PMC10138577, “Prenylated Flavonoids with Selective Toxicity against Human Cancers” (International Journal of Molecular Sciences, 2023).

What was measured:
Format in all cases: cell-based
[1] = system: SK-BR-3 human breast adenocarcinoma cells; experiment: In vitro antiproliferative assay (SRB), SK-BR-3; settings: for IC50: Homo sapiens, SK-BR-3, 72 h exposure, SRB, mean ± SD; for Calculated selectivity index SIB: IC50 BALB/3T3/IC50 SK-BR-3; for Calculated selectivity index SIA: IC50 HLMEC/IC50 SK-BR-3
Description: (§1) The following established in vitro cell lines were applied: human breast adenocarcinoma (MCF-7 and SK-BR-3), human breast ductal carcinoma (T47D), human prostate adenocarcinoma (PC-3), human prostate carcinoma (Du145), human colorectal adenocarcinoma (HT-29 and LoVo), doxorubicin-resistant human colorectal adenocarcinoma (LoVo/Dx), human myelomonocytic leukemia (MV-4-11), human lung adenocarcinoma (A549), normal murine embryonic fibroblasts (BALB/3T3) and human lung microvascular endothelial (HLMEC). All the cell lines were obtained from the American Type Culture Collection (Rockville, MD, USA) except for LoVo and LoVo/DX, which were received from the Technical University of Gdańsk, Poland, courtesy of Prof. E. Borowski. All the cell lines were maintained in the Institute of Immunology and Experimental Therapy, Wroclaw, Poland. The cells were cultured in the following media: DMEM medium (BALB/3T3), Eagle medium (MCF-7, SK-BR-3, Du145), RPMI medium (HLMEC, MV-4-11) or RPMI 1640 + Opti-MEM (1:1) medium (A549, T47D, LoVo, LoVo/Dx, PC-3, HT-29). The DMEM medium was supplemented with 2 mM L-glutamine and 10% fetal bovine serum. The Eagle medium was supplemented with 4 mM L-glutamine, 10% fetal bovine serum, 1 mM sodium pyruvate for Du145 cells or 2 mM L-glutamine, 1% amino acids and 0.8 mg L^−1 of insulin for MCF-7 and SK-BR-3. The RPMI medium was supplemented with 2 mM L-glutamine, 1 mM sodium pyruvate and 10% fetal bovine serum. The RPMI 1640 + Opti-MEM (1:1) medium was supplemented with 2 mM L-glutamine, 5% fetal bovine serum (PC-3, A549) and 0.8 mg L^−1 insulin (T47D) or 1 mM sodium pyruvate (HT-29, LoVo, LoVoDx) and 0.1 ug/mL doxorubicin (LoVo/Dx). The media contained antibiotics: 100 µg mL^−1 streptomycin and 100 U mL^−1 penicillin. All the cell lines were incubated at 37 °C in a humid atmosphere saturated with 5% CO2.
(§2) The details of this technique were described by Skehan et al.. After 72 h of incubation with the tested compounds, the cells were fixed in situ by gently adding cold 50% trichloroacetic acid—TCA (50 µL per well). The plates were incubated at 4 °C for 1 h and then washed five times with tap water and air-dried. Next, the cellular material fixed with TCA was stained by adding 50 µL of 0.4% sulforhodamine B dissolved in 1% acetic acid to each well and incubating the wells for 30 min at room temperature. The unbound dye was removed by washing the plates five times with 1% acetic acid, whereas the stain bound to the cells was extracted with 150 µL of 10 mM unbuffered Tris base for determination of the optical density at a 540 nm wavelength in a computer-interfaced, 96-well microtiter plate reader–Multiskan FC photometer (Thermo Scientific, Waltham, MA, USA). The background optical density was measured in the wells filled with culture medium, without the cells.
(§3) Twenty-four hours before incubation with the tested compounds, the cells were seeded in 96-well plates (Sarstedt, Nümbrecht, Germany) at a density of 10^4 cells per well (10^3 cells per well for HLMEC) in 100 µL of culture medium. The analysis of the antiproliferative activity of the compounds was performed using sulforhothamine B (SRB) (for all the adherent cells) or 3-(4,5-dimethylthiazol-2-yl)-2,5-diphenyl tetrazolium bromide (MTT) (for the leukemia cells—MV-4-11). The details of this technique have been previously described by Skehan et al. and Antoszak et al.. An assay was performed after 72 h of exposure at varying concentrations (from 0.1 to 100 µg mL^−1) of xanthohumol (1), aurone (2) and the reference drug cisplatin. Each compound at each concentration was tested in a single experiment, which was repeated at least 3 times. […] The results were calculated as the IC50 (μM) (half maximal inhibitory concentration), i.e., the concentration of the tested agent that inhibits the proliferation of the cancer cell population by half. […]

[2] = system: HT-29 human colorectal adenocarcinoma cells; experiment: In vitro antiproliferative assay (SRB), HT-29; settings: for IC50: HT-29, 72 h exposure, SRB, mean ± SD; for Calculated selectivity index SIB: IC50 BALB/3T3/IC50 HT-29; for Calculated selectivity index SIA: IC50 HLMEC/IC50 HT-29
Description: as §1, §2, §3

[3] = system: LoVo human colorectal adenocarcinoma cells; experiment: In vitro antiproliferative assay (SRB), LoVo; settings: for IC50: Homo sapiens, LoVo, 72 h exposure, SRB, mean ± SD; for Calculated selectivity index SIB: IC50 BALB/3T3/IC50 LoVo; for Calculated selectivity index SIA: IC50 HLMEC/IC50 LoVo
Description: as §1, §2, §3

[4] = system: LoVo/Dx doxorubicin-resistant human colorectal adenocarcinoma cells; experiment: In vitro antiproliferative assay (SRB), LoVo/Dx; settings: for IC50: Homo sapiens, LoVo/Dx, 72 h exposure, SRB, mean ± SD; for Calculated selectivity index SIB: IC50 BALB/3T3/IC50 LoVo/Dx; for Calculated selectivity index SIA: IC50 HLMEC/IC50 LoVo/Dx
Description: as §1, §2, §3

[5] = system: PC-3 human prostate adenocarcinoma cells; experiment: In vitro antiproliferative assay (SRB), PC-3; settings: for IC50: Homo sapiens, PC-3, 72 h exposure, SRB, mean ± SD; for Calculated selectivity index SIB: IC50 BALB/3T3/IC50 PC-3; for Calculated selectivity index SIA: IC50 HLMEC/IC50 PC-3
Description: as §1, §2, §3

[6] = system: Du145 human prostate carcinoma cells; experiment: In vitro antiproliferative assay (SRB), Du145; settings: for IC50: Homo sapiens, DU-145, Du145, 72 h exposure, SRB, mean ± SD; for Calculated selectivity index SIB: IC50 BALB/3T3/IC50 Du145; for Calculated selectivity index SIA: IC50 HLMEC/IC50 Du145
Description: as §1, §2, §3

[7] = system: A549 human lung adenocarcinoma cells; experiment: In vitro antiproliferative assay (SRB), A549; settings: for IC50: Homo sapiens, A549, 72 h exposure, SRB, mean ± SD; for Calculated selectivity index SIB: IC50 BALB/3T3/IC50 A549; for Calculated selectivity index SIA: IC50 HLMEC/IC50 A549
Description: as §1, §2, §3

[8] = system: normal murine embryonic fibroblasts (BALB/3T3); experiment: In vitro cytotoxicity against normal cells (SRB), BALB/3T3; settings: BALB/3T3; for IC50: Mus musculus, BALB3T3 normal cell line, 72 h exposure, SRB, mean ± SD, read-out: Antiproliferative activity IC50
Description: as §1
The details of this technique were described by Skehan et al.. […] The unbound dye was removed by washing the plates five times with 1% acetic acid, whereas the stain bound to the cells was extracted with 150 µL of 10 mM unbuffered Tris base for determination of the optical density at a 540 nm wavelength in a computer-interfaced, 96-well microtiter plate reader–Multiskan FC photometer (Thermo Scientific, Waltham, MA, USA). The background optical density was measured in the wells filled with culture medium, without the cells.
Twenty-four hours before incubation with the tested compounds, the cells were seeded in 96-well plates (Sarstedt, Nümbrecht, Germany) at a density of 10^4 cells per well (10^3 cells per well for HLMEC) in 100 µL of culture medium. […] The results were calculated as the IC50 (μM) (half maximal inhibitory concentration), i.e., the concentration of the tested agent that inhibits the proliferation of the cancer cell population by half. […]

Structure (SMILES)	IC50 [1] [µM]	Calculated selectivity index SIB [1]	Calculated selectivity index SIA [1]	IC50 ([2]; Homo sapiens, HT-29, 72 h) [µM]	Calculated selectivity index SIB [2]	Calculated selectivity index SIA [2]	IC50 [3] [µM]	Calculated selectivity index SIB [3]	Calculated selectivity index SIA [3]	IC50 [4] [µM]	Calculated selectivity index SIB [4]	Calculated selectivity index SIA [4]	IC50 [5] [µM]	Calculated selectivity index SIB [5]	Calculated selectivity index SIA [5]	IC50 [6] [µM]	Calculated selectivity index SIB [6]	Calculated selectivity index SIA [6]	IC50 [7] [µM]	Calculated selectivity index SIB [7]	also measured
COc1cc(O)c(CC=C(C)C)c(O)c1C(=O)/C=C/c1ccc(O)cc1 [compound 1, 3′-[3″,3″-dimethylallyl]-2′,4′,4-trihydroxy-6′-methoxychalcone]	12.6 ± 2.28	1.56	2.89	> 50	0.21	0.40	5.53 ± 1.64	3.55	6.56	7.28 ± 1.22	2.70	4.99	9.15 ± 0.88	2.14	3.97	10.3 ± 0.42	1.90	3.51	10 ± 0.71	1.96	IC50 ([2]; listed as xanthohumol (1)): 91.3 ± 8.92 µM; Calculated selectivity index SIA [7]: 3.62; IC50 [8]: 19.6 ± 2.95 µM
COc1cc(O)c(CC=C(C)C)c2c1C(=O)/C(=C/c1ccc(O)cc1)O2 [compound 2, (Z)-6,4′-dihydroxy-4-methoxy-7-prenylaurone]	11.3 ± 0.17	3.93	4.67	> 50	0.72	0.85	8.85 ± 4.85	5.02	5.97	7.83 ± 2.82	5.68	6.75	19.1 ± 9.27	2.33	2.77	14.7 ± 4.42	3.02	3.59	16.6 ± 3.29	2.68	IC50 ([2]; listed as aurone (2)): 62.1 ± 16.5 µM; Calculated selectivity index SIB ([4]; listed as aurone (2)): 5.97; Calculated selectivity index SIA [7]: 3.18; reduction of cytotoxic effect against normal cells relative to xanthohumol (1) ([8]; p < 0.05): 2.3 fold; IC50 [8]: 44.5 ± 5.16 µM
